Measured values published in patent publication US20250084078A1, “FUSED RING-SUBSTITUTED SIX-MEMBERED HETEROCYCLIC COMPOUND, AND PREPARATION METHOD THEREFOR AND USE THEREOF” (GENFLEFT THERAPEUTICS (SHANGHAI) INC., priority 2022, published 2025).

Each compound was assayed against HPK1 (Homo sapiens, UniProt Q92918) (assay: SLP76 phosphorylation assay (intracellular HPK1 inhibitory activity, p-SLP76 S376 ELISA in Jurkat cells)). Conditions: p-SLP76 IC50, Jurkat, Clone E6-1 cells; 1 h compound pre-incubation; anti-CD3 beads stimulation 20 min; Phospho-SLP-76 (Ser376) ELISA.
Sequence of HPK1 (Q92918 whole entry): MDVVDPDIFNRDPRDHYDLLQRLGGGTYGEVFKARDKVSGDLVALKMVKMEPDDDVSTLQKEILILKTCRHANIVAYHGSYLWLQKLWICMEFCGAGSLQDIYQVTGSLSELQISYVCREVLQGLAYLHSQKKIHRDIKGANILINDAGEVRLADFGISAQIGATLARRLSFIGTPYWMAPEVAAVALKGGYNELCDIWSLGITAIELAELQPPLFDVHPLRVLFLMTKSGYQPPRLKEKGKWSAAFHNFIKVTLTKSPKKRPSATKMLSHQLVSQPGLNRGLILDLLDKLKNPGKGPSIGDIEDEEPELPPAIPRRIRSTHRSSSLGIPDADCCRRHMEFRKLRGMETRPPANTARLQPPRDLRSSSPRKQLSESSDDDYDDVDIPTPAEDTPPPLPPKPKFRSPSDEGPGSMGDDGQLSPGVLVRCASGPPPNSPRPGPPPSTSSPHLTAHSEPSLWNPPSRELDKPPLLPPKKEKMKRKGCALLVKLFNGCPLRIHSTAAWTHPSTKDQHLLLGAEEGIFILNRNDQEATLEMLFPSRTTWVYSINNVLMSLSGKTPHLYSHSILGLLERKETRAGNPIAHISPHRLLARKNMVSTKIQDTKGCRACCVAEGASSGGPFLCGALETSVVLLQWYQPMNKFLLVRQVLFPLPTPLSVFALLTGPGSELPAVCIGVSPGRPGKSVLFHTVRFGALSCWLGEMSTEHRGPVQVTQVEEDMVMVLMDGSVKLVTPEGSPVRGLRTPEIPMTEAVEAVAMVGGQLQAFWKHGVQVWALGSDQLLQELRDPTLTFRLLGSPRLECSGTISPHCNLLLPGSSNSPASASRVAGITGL
Method: SLP76 Phosphorylation Assay
Intracellular HPK1 inhibitory activity was tested by the detection of SLP76 phosphorylation at S376.
Preparation of 1000× drug stock plate: a 1000× compound stock plate was prepared. […] The compound stock plate was sealed with a sealing film and stored in a −20° C. refrigerator for later use.
Preparation of Beads wash buffer: 0.1 mL FBS and 0.4 mL 0.5 M EDTA (with a final concentration of 2 mM) were added to 100 mL PBS and stored in a 4° C. refrigerator for later use.
100× Protease Inhibitor Cocktail in 1/20 total volume was added and stored on wet ice for later use. The buffer was ready to use.
Cell inoculation and dosing: the 1000× drug stock plate was taken and melted at room temperature in the dark. […] Jurkat cells in the logarithmic growth phase were selected and collected. […] The cells were inoculated into a 96-well plate (the volume was 90 μL per well), and a blank control well (without cells inoculation, and in which 110 μL of medium was added) was set. 10 μL of a drug-containing culture medium (10×) was transferred from the 10× drug intermediate plate into the 96-well cell plate (with a final concentration of 0.1% DMSO), and set a DMSO control group (in which 0.1% DMSO was added to the treated cells), a stimulated control group (in which 10 μL of culture medium was added to treat cells) and an unstimulated group (in which 10 μL of culture medium was added to treat cells). The wells were duplicated, gently patted, mixed, and then placed into a 5% CO2 incubator at 37° C. for 1 h.
Anti-CD3 beads stimulation: Dynabeads anti-human CD3 was taken, shaken, and mixed for 60 s. The required volume of beads was pipetted, and an equal volume or at least 1 mL of washing solution was added to wash once. Fresh complete medium was then added to resuspend and adjust the density of the beads to 4×10^7/mL, and the beads were placed on ice for later use. At the end of drug pre-incubation, the cell culture plate was taken out. 10 μL Dynabeads anti-human CD3 was added to each well to treat the cells, and 10 μL the culture medium was added to the unstimulated group. The cell culture plate was shaken to mix well at 2500 rpm for 10 s, and then placed into a 5% CO2 incubator at 37° C. and continued to culture for 20 min.
Detection of p-SLP76 protein level: PathScan Phospho-SLP-76 (Ser376) Sandwich ELISA Kit was applied to detect p-SLP76 protein level. At the end of the Anti-CD3 beads stimulation, the cell culture plate was removed from the incubator. […] After lysis, the cell culture plate was centrifuged at 4° C., 400×g for 5 min. 25 μL of sample and 75 μL of sample diluent were added to each well, and the plate was placed in a 5% CO2 incubator at 37° C. for 2 h. The subsequent detection steps were carried out following the kit instructions, and the absorbance (OD value) of each well was read at 450 nm by a microplate reader.
An IC50 of 0.246 µM was found for COC1CCN(C(=O)N2CCc3cc(-c4cnc5[nH]cc(Cl)c5c4)cc([C@@H]4COCCN4)c3C2)CC1 [Compound Z589, (R)-(6-(3-chloro-1H-pyrrolo[2,3-b]pyridin-5-yl)-8-(morpholin-3-yl)-3,4-dihydroisoquinolin-2(1H)-yl)(4-methoxypiperidin-1-yl)methanone] in this work. An IC50 of 0.188 µM was found for COc1c[nH]c2ncc(-c3cc4c(c([C@@H]5COCCN5)c3)CN(C(=O)C(C)(C)O)CC4)cc12 [Compound Z576, (R)-2-hydroxy-1-(6-(3-methoxy-1H-pyrrolo[2,3-b]pyridin-5-yl)-8-(morpholin-3-yl)-3,4-dihydroisoquinolin-2(1H)-yl)-2-methylpropan-1-one] in this work. An IC50 of 0.34 µM was found for Cc1ncc(C(=O)N2CCc3cc(-c4cnc5[nH]cc(C)c5c4)cc([C@@H]4COCCN4)c3C2)cn1 [Compound Z468, (R)-(2-methylpyrimidin-5-yl)-[6-(3-methyl-1H-pyrrolo[2,3-b]pyridin-5-yl)-8-[morpholin-3-yl]-3,4-dihydroisoquinolin-2(1H)-yl]methanone] in this work. An IC50 of 0.171 µM was found for Cc1c[nH]c2ncc(-c3cc4c(c([C@@H]5COCCN5)c3)CN(C(=O)N3CC(C)OC(C)C3)CC4)cc12 (stereo partly drawn) [Compound Z459, (2,6-dimethylmorpholine)(6-(3-methyl-1H-pyrrolo[2,3-b]pyridin-5-yl)-8-((R)-morpholin-3-yl)-3,4-dihydroisoquinolin-2(1H)-yl)methanone] in this work. An IC50 of 0.177 µM was found for Cc1c[nH]c2ncc(-c3cc4c(c([C@@H]5COCCN5)c3)CN(C(=O)N3C(C)COCC3C)CC4)cc12 (stereo partly drawn) [Compound Z460, (3,5-dimethylmorpholine)(6-(methyl-methyl-1H-pyrrolo[2,3-b]pyridin-5-yl)-8-((R)-morpholin-3-yl)-3,4-dihydroisoquinolin-2(1H)-yl)methanone] in this work. An IC50 of 0.236 µM was found for O=C(C1CCOCC1)N1CCc2cc(-c3cnc4[nH]cc(Cl)c4c3)cc([C@@H]3COCCN3)c2C1 [Compound Z543, (R)-[6-(3-chloro-1H-pyrrolo[2,3-b]pyridin-5-yl)-8-(morpholin-3-yl)-3,4-dihydroisoquinolin-2(1H)-yl](tetrahydro-2H-pyran-4-yl)methanone] in this work. An IC50 of 0.18 µM was found for Cc1c[nH]c2ncc(-c3cc4c(c([C@@H]5COCCN5)c3)CN(C(=O)N3C5CCC3CN(C)C5)CC4)cc12 [Compound Z471, (6-(3-methyl-1H-pyrrolo[2,3-b]pyridin-5-yl)-8-((R)-morpholin-3-yl)-3,4-dihydroisoquinolin-2(1H)-yl)(3-methyl-3,8-diazabicyclo[3.2.1]octan-8-yl)methanone] in this work. An IC50 of 0.56 µM was found for Cc1cc(-c2c[nH]c3ncc(-c4cc5c(c([C@@H]6COCCN6)c4)CN(C(=O)C(C)(C)O)CC5)cc23)c(C)cn1 [Compound Z545, (R)-1-(6-(3-(2,5-dimethylpyridin-4-yl)-1H-pyrrolo[2,3-b]pyridin-5-yl)-8-(morpholin-3-yl)-3,4-dihydroisoquinolin-2(1H)-yl)-2-hydroxy-2-methylpropan-1-one] in this work. An IC50 of 0.153 µM was found for O=C(C1CCOCC1)N1CCc2c(cc(-c3cnc4[nH]cc(Cl)c4c3)cc2[C@@H]2COCCN2)C1 [Compound Z487, (R)-(7-(3-chloro-1H-pyrrolo[2,3-b]pyridin-5-yl)-5-(morpholin-3-yl)-3,4-dihydroisoquinolin-2(1H)-yl)(tetrahydro-2H-pyran-4-yl)methanone] in this work. An IC50 of 0.173 µM was found for N#Cc1c[nH]c2ncc(-c3cc4c(c([C@@H]5COCCN5)c3)CN(C(=O)N3CC5CCC(C3)O5)CC4)cc12 [Compound Z515, 5-(2-(8-oxa-3-azabicyclo[3.2.1]octane-3-carbonyl)-8-((R)-morpholin-3-yl)-1,2,3,4-tetrahydroisoquinolin-6-yl)-1H-pyrrolo[2,3-b]pyridine-3-carbonitrile] in this work. An IC50 of 0.294 µM was found for Cc1c[nH]c2ncc(-c3cc4c(c([C@@H]5COCCN5)c3)CN(C(=O)N3C[C@H]5CC[C@@H]3CO5)CC4)cc12 (single isomer, unassigned) [Compound Z643] in this work. An IC50 of 0.195 µM was found for Cc1c[nH]c2ncc(-c3cc4c(c([C@@H]5COCCN5)c3)CN(C3CCN(C)CC3)CC4)cc12 [Compound Z498, (R)-3-(6-(3-methyl-1H-pyrrolo[2,3-b]pyridin-5-yl)-2-(1-methylpiperidin-4-yl)-1,2,3,4-tetrahydroisoquinolin-8-yl)morpholine] in this work. An IC50 of 0.293 µM was found for Cc1c[nH]c2ncc(-c3cc4c(c([C@@H]5COCCN5)c3)CN(C(=O)N3C[C@@H]5C[C@H]3CO5)CC4)cc12 [Compound Z463] in this work. An IC50 of 0.422 µM was found for Cc1c[nH]c2ncc(-c3cc4c(c([C@@H]5COCCN5)c3)CN(C(=O)c3cnn(C(C)C)c3)CC4)cc12 [Compound Z477] in this work. An IC50 of 0.136 µM was found for C[C@H]1COCCN1C(=O)N1CCc2cc(-c3cnc4[nH]cc(Cl)c4c3)cc([C@@H]3COCCN3)c2C1 [Compound Z613] in this work. An IC50 of 0.385 µM was found for Cc1c[nH]c2ncc(-c3cc4c(c([C@@H]5COCCN5)c3)CN(S(=O)(=O)C3CC3)CC4)cc12 [Compound Z467, (R)-3-[2-cyclopropylsulfonyl-6-(3-methyl-1H-pyrrolo[2,3-b]pyridin-5-yl)-1,2,3,4-tetrahydroisoquinolin-8-yl]morpholine] in this work. An IC50 of 0.238 µM was found for Cc1c[nH]c2ncc(-c3cc4c(c([C@@H]5COCCN5)c3)CN(C(=O)N3CCO[C@@H](C)C3)CC4)cc12 [Compound Z452, (6-(3-methyl-1H-pyrrolo[2,3-b]pyridin-5-yl)-8-((R)-morpholin-3-yl)-3,4-dihydroisoquinolin-2(1H)-yl)((S)-2-methylmorpholine)methanone] in this work. An IC50 of 0.936 µM was found for Cc1c[nH]c2ncc(-c3cc4c(c([C@@H]5COCCN5)c3)CN(C(=O)N3CCC(O)C3)CC4)cc12 (stereo partly drawn) [Compound Z558, (3-hydroxypyrrolidin-1-yl)(6-(3-methyl-1H-pyrrolo[2,3-b]pyridin-5-yl)-8-((R)-morpholin-3-yl)-3,4-dihydroisoquinolin-2(1H)-yl)methanone] in this work. An IC50 of 0.275 µM was found for O=C(N1CCc2cc(-c3cnc4[nH]cc(Cl)c4n3)cc([C@@H]3COCCN3)c2C1)N1C[C@H]2CC[C@@H]1CO2 (single isomer, unassigned) [Compound Z591] in this work. An IC50 of 0.962 µM was found for Cc1c[nH]c2ncc(-c3cc4c(c([C@@H]5COCCN5)c3)CN(C(=O)N3CCC(O)CC3)CC4)cc12 [Compound Z556, (R)-(4-hydroxypiperidin-1-yl)(6-(3-methyl-1H-pyrrolo[2,3-b]pyridin-5-yl)-8-(morpholin-3-yl)-3,4-dihydroisoquinolin-2(1H)-yl)methanone] in this work. An IC50 of 2.67 µM was found for N#Cc1c[nH]c2ncc(-c3cc4c(c([C@@H]5COCCN5)c3)CN(C(=O)N3C5CCC3COC5)CC4)nc12 [Compound Z583, 2-(2-(3-oxa-8-azabicyclo[3.2.1]octane-8-carbonyl)-8-((R)-morpholin-3-yl)-1,2,3,4-tetrahydroisoquinolin-6-yl)-5H-pyrrolo[2,3-b]pyrazine-7-carbonitrile] in this work. An IC50 of 0.163 µM was found for Cc1cccnc1C#Cc1c[nH]c2ncc(-c3cc4c(c([C@@H]5COCCN5)c3)CN(C(=O)C(C)(C)O)CC4)cc12 [Compound Z578, (R)-2-hydroxy-2-methyl-1-(6-(3-50 ((3-methylpyridin-2-yl)ethynyl)-1H-pyrrolo[2,3-b]pyridin-5-yl)-8-(morpholin-3-yl)-3,4-dihydroisoquinolin-2(1H)-yl)propan-1-one] in this work. An IC50 of 0.283 µM was found for Cc1c(F)[nH]c2ncc(-c3cc4c(c([C@@H]5COCCN5)c3)CN(C(=O)C(C)(C)O)CC4)cc12 [Compound Z510, (R)-1-(6-(2-fluoro-3-methyl-1H-pyrrolo[2,3-b]pyridin-5-yl)-8-(morpholin-3-yl)-3,4-tetrahydroisoquinolin-2(1H)-yl)-2-hydroxy-2-methylpropan-1-one] in this work. An IC50 of 0.317 µM was found for CC(=O)c1c[nH]c2ncc(-c3cc4c(c([C@@H]5COCCN5)c3)CN(C(=O)C(C)(C)O)CC4)cc12 [Compound Z593, (R)-1-(6-(3-acetyl-1H-pyrrolo[2,3-b]pyridin-5-yl)-8-(morpholin-3-yl)-3,4-dihydroisoquinolin-2(1H)-yl)-2-hydroxy-2-methylpropan-1-one] in this work. An IC50 of 0.147 µM was found for Cc1c[nH]c2ncc(-c3cc4c(c([C@@H]5COCCN5)c3)CN(C(=O)N3CCOC5CC53)CC4)cc12 (stereo partly drawn) [Compound Z562, (2-oxa-5-azabicyclo[4.1.0]heptan-5-yl)(6-(3-methyl-1H-pyrrolo[2,3-b]pyridin-5-yl)-8-((R)-morpholin-3-yl)-3,4-dihydroisoquinolin-2(1H)-yl)methanone] in this work. An IC50 of 0.118 µM was found for Cc1c[nH]c2ncc(-c3cc4c(c([C@@H]5COCCN5)c3)CN(C(=O)N3CCOC[C@H]3C)CC4)cc12 [Compound Z480, (6-(3-methyl-1H-pyrrolo[2,3-b]pyridin-5-yl)-8-((R)-morpholin-3-yl)-3,4-dihydroisoquinolin-2(1H)-yl)((R)-3-methylmorpholino)methanone] in this work. An IC50 of 0.394 µM was found for Cc1ncc(C(=O)N2CCc3cc(-c4cnc5[nH]cc(Cl)c5c4)cc([C@@H]4COCCN4)c3C2)cn1 [Compound Z532, (R)-(6-(3-50 chloro-1H-pyrrolo[2,3-b]pyridin-5-yl)-8-(morpholin-3-yl)-3,4-dihydroisoquinolin-2(1H)-yl)(2-methylpyrimidin-5-yl)methanone] in this work. An IC50 of 0.184 µM was found for C[C@@H]1CN(C(=O)N2CCc3cc(-c4cnc5[nH]cc(Cl)c5c4)cc([C@@H]4COCCN4)c3C2)C[C@@H](C)O1 [Compound Z599, (6-(3-chloro-1H-pyrrolo[2,3-b]pyridin-5-yl)-8-((R)-morpholin-3-yl)-3,4-dihydroisoquinolin-2(1H)-yl)((2R,6R)-2,6-dimethylmorpholinyl)methanone] in this work. An IC50 of 0.127 µM was found for Cc1c[nH]c2ncc(-c3cc4c(c([C@@H]5COCCN5)c3)CN(C(=O)N3CC(C)OCC3C)CC4)cc12 (stereo partly drawn) [Compound Z458, (2,5-dimethylmorpholine)(6-(3-methyl-1H-pyrrolo[2,3-b]pyridin-5-yl)-8-((R)-morpholin-3-yl)-3,4-dihydroisoquinolin-2(1H)-yl)methanone] in this work. An IC50 of 0.147 µM was found for Cc1c[nH]c2ncc(-c3cc4c(c([C@@H]5COCCN5)c3)CN(C(=O)N3CCOCC3(C)C)CC4)cc12 [Compound Z479, (R)-(3,3-dimethylmorpholine)(6-(3-methyl-1H-pyrrolo[2,3-b]pyridin-5-yl)-8-(morpholin-3-yl)-3,4-dihydroisoquinolin-2(1H)-yl)methanone] in this work.
